Laboratory results: patent publication US20100036088A1, “Selective poly-N-substituted glycine antibiotics” (priority 2008, published 2010)
Square brackets hold non-standard residues; d marks the D form. Peptide text beside a SMILES is read from it. Nspe = C[C@H](NCC(=O)O)c1ccccc1; Nlys = NCCCCNCC(=O)O

Key:
[1] = tested on: A549 lung epithelial cells; test: MTS assay, metabolic inhibition
Protocol: The biocompatibility of selected oligomers with A549 lung epithelial cells was evaluated using the MTS [3-(4,5-dimethylthiazol-2-yl)-5-(3-carboxymethoxyphenyl)-2-(4-sulfophenyl)-2H-tetrazolium] assay.
MTS Assays. A549 carcinoma-derived lung epithelial cells (ATTC CCL-185) were cultured in Ham's F12K media (ATTC, Manassas, Va.). A peptoid solution plate (100 μL/well) was prepared by serial dilution of aqueous peptoid stocks in media. Peptoid solutions were transferred onto a 96-well plate of day-old cell monolayers containing 100 μL/well media with ˜5000 cells/well. MTS reagent (Promega Corporation, Madison, Wis.) (40 μL/well) was added to each well and the plate was incubated at 37° C. for 3 h, after which absorbance at 490 nm was determined. Percent inhibition was determined as [1−(A−Atest blank)/(Acontrol−Ablank)]×100, where A is the absorbance of the test well and Acontrol the average absorbance of wells with cells exposed to media and MTS (no peptoid). Atest blank (media, MTS, and peptoid) and Ablank (media and MTS) were background absorbances measured in the absence of cells. The average of six replicates are reported, and error bars show one standard deviation.

[2] = tested on: NIH 3T3 mouse fibroblast cells; test: MTS assay, metabolic inhibition; type: cell-based; conditions: Table 3; NIH 3T3 cells
Method in brief: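 NIH/3T3 cells seeded at 5,000 per well, grown a day, then exposed to serially diluted peptoids in HBSS together with MTS reagent. Absorbance at 490 nm read after 3 hours at 37° C.; mean of six replicates.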

[3] = tested on: Staphyloccus aureus (ATCC #25923); test: Murine intraperitoneal infection model; type: in vivo; conditions: mouse, 4 mg/kg I.P.; eleven mice treated with 1-Nhis6,12
Protocol: Using a murine peritoneal injection mouse model, the ability of peptoids to treat infection was evaluated in vivo. The results from three separate studies of peptoid 1 and two of peptoid 1-Nhis6,12 against saline treated controls are shown in FIG. 7. The horizontal line represents the geometric mean of each population.
Murine intraperitoneal infection model. Bacteria was prepared by inoculating 5 mL of MHB with a single colony of Staphyloccus aureus (ATCC #25923) from a freshly streaked plate and grown overnight at 37 C. The following morning, the bacteria was subcultured by diluting 1/3 in MHB and grown for approximately 1.5 hours. The bacteria were then diluted 10-fold in a 5% mucin in PBS solution and thoroughly mixed. A sample was reserved to later determine the amount of bacteria the mice received.
Mice were weighed, marked, and injected I.P. with 200 uL of S. aureus inoculum. Four hours post infection, mice were treated I.P. with 4 mg/kg peptoid (˜100 ug per mouse). The infection is allowed to proceed overnight. Mice were euthanized by CO2 asphyxiation after 24 hours, and the peritoneal cavity was exposed and lavaged with 5 mL PBS. The lavage was mixed and reserved on ice until plating. […] Colonies were counted the following day, and the CFU/ml of each sample was calculated. […]

[4] = tested on: Candida albicans (SC5314); type: cell-based, C. albicans; conditions: Table 2
Protocol: Additionally, in order to characterize possible antifungal activity, a library of alkylated compounds was tested against C. albicans, a representative fungal strain.
Antifungal Assays. MICs were determined using the broth microdilution assay given by CLSI M27-A2 protocols. Candida albicans (SC5314) was grown on Sabouraud dextrose agar for 24 hours at 30° C. Cells were suspended in 0.145 M saline, and the cell concentration was adjusted to 3×10^6 cells/mL. After adjusting the cell concentration, the suspension was diluted 1:1000 with RPMI 1640 (with L-glutamine and without sodium bicarbonate, Invitrogen) buffered with 0.145 M 3-(N-morpholino) propanesulfonic acid (MOPS). Two-fold serial dilutions of peptoids, peptides, and amphotericin B (Calbiochem) were prepared in RPMI 1640 and mixed with an equal volume of the cell suspension in 96-well plates. The final testing concentrations for the peptoids and peptides were 0.20 to 100 μM, and concentrations for amphotericin B were 0.031 to 16 μM. Growth controls and sterility controls were also included. Plates were incubated for 48 hours at 35° C., and growth of C. albicans was inspected visually to determine the MICs. The MIC for each compound was defined as the lowest concentration with no visible fungal growth. Experiments were performed in duplicate on two separate days.

B. subtilis = type: cell-based; conditions: Table 2; cation-adjusted broth
Protocol: (§1) Antibacterial assays. MICs were determined according to CLSI M7-A6 protocols in a 96-well microtiter plate. In test wells, 50 μL bacterial inoculum (5×10^5 CFU/ml) in Mueller-Hinton broth (MHB) was added to 50 μL peptoid solution in MHB (prepared by 1:2 serial dilutions). Positive controls contained 50 μL inoculum and 50 μL MHB without peptoid. […] MIC values reported were reproducible between three independent experimental replicates, each consisting of two parallel trials. Broad-spectrum antimicrobial susceptibility testing was performed against BSL2 pathogens by Nova Biologicals, Inc. (Conroe, Tex.).
(§2) Screening antibacterial assays. MICs were determined in 96-well microtiter plates in accordance with CLSI M7-A6 protocols. Peptoid solutions with 50 μL total volume were prepared using 2:1 serial dilutions. 50 μL of bacteria inoculum (1×10^6 CFU/mL) prepared in cation-adjusted Mueller-Hinton broth (CAMHB) was added to test wells. Control wells contained 100 μL MHB (no growth) or 50 μL inoculums with 50 μL MHB with no peptoid. […] Reported values were reproducible over three experiments, each containing two parallel trials.

E. coli = type: cell-based; conditions: Table 2; cation-adjusted broth
Protocol: as §1, §2

Row | ID10 relative to that of pexiganan [1] [times] | Compound | ID10 (10% metabolic inhibitory concentration) [2] | ID50 (50% metabolic inhibitory concentration) [2] | mice that died prematurely during the exposure period [3] | C. albicans MIC [4] [µM] | B. subtilis MIC (B. subtilis) [µM] | E. coli MIC (E. coli) [µM]
1 | 10 | C[C@@H](c1ccccc1)N(CC(N)=O)C(=O)CN(C(=O)CN(CCCCN)C(=O)CN(C(=O)CN(C(=O)CN(CCCCN)C(=O)[C@@H]1CCCN1C(=O)CN(C(=O)CN(CCCCN)C(=O)CN(C(=O)CN(C(=O)CNCCCCN)[C@@H](C)c1ccccc1)[C@@H](C)c1ccccc1)[C@@H](C)c1ccccc1)[C@@H](C)c1ccccc1)[C@@H](C)c1ccccc1)[C@@H](C)c1ccccc1 [1-Pro6, H-Nlys-Nspe-Nspe-Nlys-Nspe-L-Pro-(Nlys-Nspe-Nspe)2-NH2] (H-[Nlys][Nspe][Nspe][Nlys][Nspe]P[Nlys][Nspe][Nspe][Nlys][Nspe][Nspe]-NH2) |  |  |  |  |  | 
2 |  | C[C@@H](c1ccccc1)N(CC(N)=O)C(=O)CN(C(=O)CN(CCCCN)C(=O)CN(C(=O)CN(C(=O)CN(CCCCN)C(=O)CN(C(=O)CN(C(=O)CN(CCCCN)C(=O)CN(C(=O)CN(C(=O)CNCCCCN)[C@@H](C)c1ccccc1)[C@@H](C)c1ccccc1)[C@@H](C)c1ccccc1)[C@@H](C)c1ccccc1)[C@@H](C)c1ccccc1)[C@@H](C)c1ccccc1)[C@@H](C)c1ccccc1 [compound 1, H-(NLys-Nspe-Nspe)4-NH2] (H-[Nlys][Nspe][Nspe][Nlys][Nspe][Nspe][Nlys][Nspe][Nspe][Nlys][Nspe][Nspe]-NH2) | 5.1 | 1.4 | no mice | 6.3 | 1.6 | 6.3
